Reference: patent US6737383B1, “Herbicidal oxadiazolidines” (priority 1999, dated 2004)

Assays:
cocklebur = assay: Test B pre/postemergence cocklebur; assay type: in vivo, Xanthium strumarium
Outline: (§1)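 Response is a visual 0-to-10 score relative to untreated plants, where 0 means no effect and 10 means complete control, taken twelve to sixteen days after application. Treatments went onto soil at planting and onto foliage of 1- to 4-leaf plants, using a surfactant-containing non-phytotoxic solvent.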

crabgrass = assay: Test B pre/postemergence crabgrass; assay type: in vivo, Digitaria sanguinalis
Outline: as §1

rice = assay: Test B flood test rice; assay type: in vivo, Oryza sativa
Outline: (§2)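 Read-out is a visual response score from 0 (no effect) to 10 (complete control), assigned by comparison with untreated controls. Treatment was applied at the 2-leaf stage, and plants stayed in the greenhouse for twelve to sixteen days before scoring.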

duck salad = assay: Test B flood test duck salad; assay type: in vivo, Heteranthera limosa
Outline: as §2

giant foxtail = assay: Test B pre/postemergence giant foxtail; assay type: in vivo, Setaria faberii
Outline: as §1

bamyardgrass = assay: Test B flood test barnyardgrass; assay type: in vivo, Echinochloa crus-galli
Outline: as §2

morningglory = assay: Test B pre/postemergence morningglory; assay type: in vivo, Ipomoea hederacea
Outline: as §1

wild oat = assay: Test B pre/postemergence wild oat; assay type: in vivo, Avena fatua
Outline: as §1

wheat = assay: Test B pre/postemergence wheat; assay type: in vivo, Triticum aestivum
Outline: as §1

purple nutsedge = assay: Test B pre/postemergence purple nutsedge; assay type: in vivo, Cyperus rotundus; details: Postemergence
Outline: as §1

sugar beet = assay: Test B pre/postemergence sugar beet; assay type: in vivo, Beta vulgaris
Outline: as §1

surinam grass = assay: Test B pre/postemergence surinam grass; assay type: in vivo, Brachiaria decumbens
Outline: as §1

blackgrass = assay: Test B pre/postemergence blackgrass; assay type: in vivo, Alopecurus myosuroides
Outline: as §1

pigweed = assay: Test B pre/postemergence pigweed; assay type: in vivo, Amaranthus retroflexus
Outline: as §1

velvetleaf = assay: Test B pre/postemergence velvetleaf; assay type: in vivo, Abutilon theophrasti
Outline: as §1

bedstraw = assay: Test B pre/postemergence bedstraw; assay type: in vivo, Galium aparine
Outline: as §1

[1] = Postemergence, Rate 250 g/ha, scale 0 to 10, 0 no effect, 10 complete control
[2] = Postemergence, Rate 1000 g/ha, scale 0 to 10 (0 no effect, 10 complete control)
[3] = Preemergence, Rate 125 g/ha, scale 0 to 10 (0 no effect, 10 complete control)
[4] = Preemergence, Rate 250 g/ha, scale of 0 to 10 where 0 is no effect and 10 is complete control
[5] = Preemergence, Rate 500 g/ha, scale 0 (no effect) to 10 (complete control)
[6] = Rate 125 g/ha, Postemergence, scale 0 to 10, 0 no effect, 10 complete control
[7] = Rate 500 g/ha, Postemergence, 0 to 10 scale (0 no effect, 10 complete control)
[8] = Rate 1000 g/ha, Preemergence, scale 0 to 10 (0 no effect, 10 complete control)
[9] = Rate 125 g/ha, Postemergence section (flood test species), scale 0 to 10, 0 no effect, 10 complete control
[10] = Rate 500 g/ha, Postemergence section of Table B, 0 to 10 scale (0 no effect, 10 complete control)
[11] = flood test, listed under Postemergence, Rate 250 g/ha, scale 0 to 10, 0 no effect, 10 complete control

SMILES: CCN(CC)C(=O)n1oc(=O)n(-c2ccc(F)cc2)c1=O [Compound 3]
- Cocklebur plant response rating (cocklebur; [1]): 0
- Cocklebur plant response rating (cocklebur; [2]): 2
- Plant response rating, Cocklebur (cocklebur; [3]): 0
- Plant response rating, Cocklebur (cocklebur; [4]): 0
- Cocklebur plant response rating (cocklebur; [5]): 0
- Cocklebur plant response rating (cocklebur; [6]): 0
- Cocklebur plant response rating (cocklebur; [7]): 0
- Plant response rating, Cocklebur (cocklebur; [8]): 0
- Crabgrass plant response rating (crabgrass; [1]): 0
- Crabgrass plant response rating (crabgrass; [2]): 7
- Plant response rating, Crabgrass (crabgrass; [3]): 0
- Plant response rating, Crabgrass (crabgrass; [4]): 0
- Crabgrass plant response rating (crabgrass; [5]): 0
- Crabgrass plant response rating (crabgrass; [6]): 0
- Crabgrass plant response rating (crabgrass; [7]): 6
- Plant response rating, Crabgrass (crabgrass; [8]): 2
- Rice plant response rating (rice; [2]): 0
- Rice plant response rating (rice; [9]): 0
- Rice plant response rating (rice; [10]): 0
- Rice plant response rating (rice; [11]): 0
- Ducksalad plant response rating (duck salad; [2]): 0
- Ducksalad plant response rating (duck salad; [9]): 0
- Ducksalad plant response rating (duck salad; [10]): 0
- Ducksalad plant response rating (duck salad; [11]): 0
- Giant foxtail plant response rating (giant foxtail; [1]): 3
- Giant foxtail plant response rating (giant foxtail; [2]): 8
- Plant response rating, Giant foxtail (giant foxtail; [3]): 0
- Plant response rating, Giant foxtail (giant foxtail; [4]): 1
- Giant foxtail plant response rating (giant foxtail; [5]): 8
- Giant foxtail plant response rating (giant foxtail; [6]): 0
- Giant foxtail plant response rating (giant foxtail; [7]): 7
- Plant response rating, Giant foxtail (giant foxtail; [8]): 10
- Barnyardgrass plant response rating (bamyardgrass; [2]): 0
- Barnyardgrass plant response rating (bamyardgrass; [9]): 0
- Barnyardgrass plant response rating (bamyardgrass; [10]): 0
- Barnyardgrass plant response rating (bamyardgrass; [11]): 0
- Morningglory plant response rating (morningglory; [1]): 0
- Morningglory plant response rating (morningglory; [2]): 0
- Plant response rating, Morningglory (morningglory; [3]): 0
- Plant response rating, Morningglory (morningglory; [4]): 0
- Morningglory plant response rating (morningglory; [5]): 0
- Morningglory plant response rating (morningglory; [6]): 0
- Morningglory plant response rating (morningglory; [7]): 0
- Plant response rating, Morningglory (morningglory; [8]): 0
- Wild oats plant response rating (wild oat; [1]): 0
- Wild oats plant response rating (wild oat; [2]): 0
- Plant response rating, Wild oats (wild oat; [3]): 0
- Plant response rating, Wild oats (wild oat; [4]): 0
- Wild oats plant response rating (wild oat; [5]): 0
- Wild oats plant response rating (wild oat; [6]): 0
- Plant response rating, Wild oats (wild oat; [8]): 0
- Wheat plant response rating (wheat; [1]): 0
- Wheat plant response rating (wheat; [2]): 0
- Plant response rating, Wheat (wheat; [3]): 0
- Plant response rating, Wheat (wheat; [4]): 0
- Wheat plant response rating (wheat; [5]): 0
- Wheat plant response rating (wheat; [6]): 0
- Plant response rating, Wheat (wheat; [8]): 0
- Nutsedge plant response rating (purple nutsedge; Rate 250 g/ha, scale 0 to 10, 0 no effect, 10 complete control): 0
- Nutsedge plant response rating (purple nutsedge; Rate 1000 g/ha, scale 0 to 10 (0 no effect, 10 complete control)): 0
- Nutsedge plant response rating (purple nutsedge; Rate 125 g/ha, scale 0 to 10, 0 no effect, 10 complete control): 0
- Nutsedge plant response rating (purple nutsedge; Rate 500 g/ha, 0 to 10 scale (0 no effect, 10 complete control)): 0
- Sugarbeets plant response rating (sugar beet; [1]): 0
- Sugarbeets plant response rating (sugar beet; [2]): 0
- Plant response rating, Sugarbeets (sugar beet; [3]): 0
- Plant response rating, Sugarbeets (sugar beet; [4]): 0
- Sugarbeets plant response rating (sugar beet; [5]): 0
- Sugarbeets plant response rating (sugar beet; [6]): 0
- Plant response rating, Sugarbeets (sugar beet; [8]): 0
- B. signalgrass plant response rating (surinam grass; [1]): 0
- B. signalgrass plant response rating (surinam grass; [2]): 0
- Plant response rating, B. signalgrass (surinam grass; [3]): 0
- Plant response rating, B. signalgrass (surinam grass; [4]): 0
- B. signalgrass plant response rating (surinam grass; [5]): 0
- B. signalgrass plant response rating (surinam grass; [6]): 0
- B. signalgrass plant response rating (surinam grass; [7]): 0
- Plant response rating, B. signalgrass (surinam grass; [8]): 0
- Blackgrass plant response rating (blackgrass; [1]): 0
- Blackgrass plant response rating (blackgrass; [2]): 3
- Plant response rating, Blackgrass (blackgrass; [3]): 0
- Plant response rating, Blackgrass (blackgrass; [4]): 0
- Blackgrass plant response rating (blackgrass; [5]): 0
- Blackgrass plant response rating (blackgrass; [6]): 0
- Blackgrass plant response rating (blackgrass; [7]): 0
- Plant response rating, Blackgrass (blackgrass; [8]): 0
- Redroot pigweed plant response rating (pigweed; [1]): 0
- Redroot pigweed plant response rating (pigweed; [2]): 0
- Plant response rating, Redroot pigweed (pigweed; [3]): 0
- Plant response rating, Redroot pigweed (pigweed; [4]): 0
- Redroot pigweed plant response rating (pigweed; [5]): 0
- Redroot pigweed plant response rating (pigweed; [6]): 0
- Redroot pigweed plant response rating (pigweed; [7]): 0
- Plant response rating, Redroot pigweed (pigweed; [8]): 0
- Velvetleaf plant response rating (velvetleaf; [1]): 0
- Velvetleaf plant response rating (velvetleaf; [2]): 0
- Plant response rating, Velvetleaf (velvetleaf; [3]): 0
- Plant response rating, Velvetleaf (velvetleaf; [4]): 0
- Velvetleaf plant response rating (velvetleaf; [5]): 0
- Velvetleaf plant response rating (velvetleaf; [6]): 0
- Plant response rating, Velvetleaf (velvetleaf; [8]): 0
- Bedstraw plant response rating (bedstraw; [1]): 0
- Bedstraw plant response rating (bedstraw; [2]): 0
- Plant response rating, Bedstraw (bedstraw; [3]): 0
- Plant response rating, Bedstraw (bedstraw; [4]): 0
- Bedstraw plant response rating (bedstraw; [5]): 0
- Bedstraw plant response rating (bedstraw; [6]): 0
- Bedstraw plant response rating (bedstraw; [7]): 0
- Plant response rating, Bedstraw (bedstraw; [8]): 0
